System: calreticulin mRNA in MC3T3 cells
Assay: Calreticulin mRNA levels in MC3T3 cells
Format: cell-based, mouse
Experimental: Calreticulin expression levels in these cell types are determined at the outset by Western blot analysis. In addition to utilizing these stable expression vectors, we construct inducible calreticulin expression sense- and antisense-cDNA expression vectors driven by strong metal inducible promoters (Filmus et al., 1992). The inducible vectors allow us to turn calreticulin expression on or off at will. In the MC3T3 cells, 1,25,dihydroxyvitamin D3 has a proliferative effect on these cells at subconfluency, but when added to confluent, mineralizing cultures, it enhances the mineralization process. The transfected cells are analyzed for the level of calreticulin expression by Western blot analysis as described by us previously as well as by Northern blot analysis for mRNA levels. The effect of up or down regulation of calreticulin is determined in terms of the above mentioned responses to 1,25 dihydroxyvitamin D3. In addition, the effect on the expression of vitamin D responsive genes, such as c-fos and integrin b3 subunit (Xu et al., 1993) is determined by Northern blot and Western blot analysis. […] The luciferase activity in mock transfected versus calreticulin sense- and antisense-cDNA transfected cells (stable and inducible) is then be determined as described by us previously (see Example 6). […]

## C=C1/C(=C\C=C2/CCC[C@]3(C)[C@@H]([C@H](C)CCCC(C)(C)O)CC[C@@H]23)C[C@@H](O)C[C@@H]1O [1,25,dihydroxyvitamin D3]
  Calreticulin mRNA levels: upregulates calreticulin mRNA levels
